Read-outs that look alike come from different tables or passages of the source.

The assay addresses Recombinant human cathepsin A (Homo sapiens (Human), UniProt P10619). Kind of assay: Cathepsin A inhibitory activity (Bodipy FL-labeled bradykinin substrate, microfluidic capillary electrophoresis). Format: biochemical. The note with it: read-out: CATHA IC50. The procedure: Pharmacological Tests a) Cathepsin a Inhibitory Activity
Recombinant human cathepsin A (residues 29-480, with a C-terminal 10-His tag; R&D Systems, #1049-SE) was proteolytically activated with recombinant human cathepsin L (R&D Systems, #952-CY). Briefly, cathepsin A was incubated at 10 μg/ml with cathepsin L at 1 μg/ml in activation buffer (25 mM 2-(morpholin-4-yl)-ethanesulfonic acid (MES), pH 6.0, containing 5 mM dithiothreitol (DTT)) for 15 min at 37° C.
The activated cathepsin A was diluted in assay buffer (25 mM MES, pH 5.5, containing 5 mM DTT) and mixed with the test compound (dissolved in assay buffer containing (v/v) 3% DMSO) or, in the control experiments, with the vehicle in a multiple assay plate. After incubation for 15 min at room temperature, as substrate then bradykinin carrying an N-terminal® Bodipy FL (4,4-difluoro-5,7-dimethyl-4-bora-3a,4a-diaza-s-indacene-3-propionyl) label (JPT Peptide Technologies GmbH; dissolved in assay buffer) was added to the mixture. The final concentration of cathepsin A was 833 ng/ml and the final concentration of labeled bradykinin 2 μM. After incubation for 15 min at room temperature the reaction was stopped by the addition of stop buffer (130 mM 2-(4-(2-hydroxy-ethyl)-piperazin-1-yl)-ethanesulfonic acid, pH 7.4, containing (v/v) 0.013%° Triton X-100, 0.13% Coating Reagent 3 (Caliper Life Sciences), 6.5% DMSO and 20 μM ebelactone B (Sigma, #E0886)).
Uncleaved substrate and product were then separated by a microfluidic capillary electrophoresis on a LabChip® 3000 Drug Discovery System (12-Sipper-Chip; Caliper Life Sciences) and quantified by determination of the respective peak areas. Substrate turnover was calculated by dividing product peak area by the sum of substrate and product peak areas, and the enzyme activity and the inhibitory effect of the test compound thus quantified.

The mark [1] stands for this setting: Cathepsin A inhibitory activity.

Chain of Recombinant human cathepsin A (P10619 29-326): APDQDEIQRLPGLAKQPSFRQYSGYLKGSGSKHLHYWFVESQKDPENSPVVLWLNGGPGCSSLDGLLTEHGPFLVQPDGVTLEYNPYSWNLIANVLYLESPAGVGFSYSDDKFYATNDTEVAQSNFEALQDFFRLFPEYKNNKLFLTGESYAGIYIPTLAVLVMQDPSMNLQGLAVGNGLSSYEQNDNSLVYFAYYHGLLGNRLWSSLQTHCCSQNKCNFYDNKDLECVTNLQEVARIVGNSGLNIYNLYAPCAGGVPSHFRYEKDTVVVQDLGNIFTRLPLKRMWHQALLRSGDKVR
Chain of Recombinant human cathepsin A (P10619 327-480): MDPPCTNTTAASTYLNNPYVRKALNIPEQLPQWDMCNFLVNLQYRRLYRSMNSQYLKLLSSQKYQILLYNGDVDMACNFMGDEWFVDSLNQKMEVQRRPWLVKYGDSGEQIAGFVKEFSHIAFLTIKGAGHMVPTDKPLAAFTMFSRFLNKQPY

Consider `O=C(O)CC(c1cccc(-c2ccccc2)c1)c1nccs1` (stereo not shown) [compound 10], for which the IC50 (as a rule, the point on the concentration scale where inhibition reaches its midpoint) was 2590 nM.
Still for that read-out and setting: the value for `O=C(O)CC(c1cccc(-c2ccccc2Cl)c1)c1nccs1` (stereo not shown) [compound 8] was 2040 nM; that for `COc1ccc(-c2ccccc2C(N)=O)cc1C(CC(=O)O)c1ncc(C)s1` (stereo not shown) [compound 97] was 19300 nM; that for `COc1cc(F)c(-c2cccc(C(CC(=O)O)c3ncc(C)s3)c2)cc1F` (stereo not shown) [compound 52] was 466 nM.
Turning to `COc1cccc(-c2ccc(OC)c(C(CC(=O)O)c3ncc(C)s3)c2)c1` (stereo not shown) [compound 85], the IC50 was found to be 5560 nM.
Still for that read-out and setting: with `COc1ccc(-c2cccc(C)c2F)cc1C(CC(=O)O)c1ncc(C)s1` (stereo not shown) [compound 73] the figure was 2420 nM.
For the molecule `O=C(O)CC(c1cc(F)cc(-c2cc(F)ccc2F)c1)c1ncco1` (stereo not shown) [compound 130], under setting [1], the IC50 is 1490 nM.
In the case of `COc1ccc(-c2cccc(C)c2C)cc1C(CC(=O)O)c1ncc(C)s1` (stereo not shown) [compound 71], the IC50 came to 2300 nM.
Same read-out and setting: with `COc1c(C)cc(-c2cccc(C(CC(=O)O)c3nccs3)c2)cc1C` (stereo not shown) [compound 25] the figure was 1650 nM; with `O=C(O)CC(c1cccc(-c2ccc(Cl)cc2)c1)c1nccs1` (stereo not shown) [compound 7], 1750 nM; with `Cc1nc(C(CC(=O)O)c2cccc(Br)c2)sc1C` (stereo not shown) [compound 2], 7780 nM.
Still for that read-out and setting: with `O=C(O)CC(c1cccc(-c2cccc(OCC(F)(F)F)c2)c1)c1nccs1` (stereo not shown) [compound 34] the figure was 2460 nM.
The same measure, in the same setting: the value for `COc1ccc(-c2ccc(OC(F)(F)F)cc2)cc1C(CC(=O)O)c1ncc(C)s1` (stereo not shown) [compound 89] was 6730 nM.
For the molecule `Cc1cnc(C(CC(=O)O)c2cc(F)cc(-c3ccccc3C(N)=O)c2)s1` (stereo not shown) [compound 127], the half-maximal inhibitory concentration (IC50) under setting [1] was determined as 1230 nM.
With `COc1ccc(-c2ccc(C#N)cc2)cc1C(CC(=O)O)c1ncc(C)s1` (stereo not shown) [compound 93], the IC50 came out at 8800 nM.
Consider `Cc1cnc(C(CC(=O)O)c2cccc(-c3cccnc3)c2)s1` (stereo not shown) [compound 58], for which the IC50 worked out at 7540 nM.
Same read-out and setting: the value for `O=C(O)CC(c1cccc(-c2cccnc2)c1)c1nccs1` (stereo not shown) [compound 44] was 21200 nM; that for `O=C(O)CC(c1cccc(-c2cccc(Cl)c2)c1)c1nccs1` (stereo not shown) [compound 5] was 967 nM; that for `COc1ccc(-c2ccccc2C)cc1C(CC(=O)O)c1ncc(C)s1` (stereo not shown) [compound 78] was 3280 nM.
For the molecule `O=C(O)CC(c1cc(F)cc(-c2ccccc2F)c1)c1ncco1` (stereo not shown) [compound 133], the IC50 under setting [1] was determined as 1720 nM.
For `COc1ccc(-c2ccc(C)cc2)cc1C(CC(=O)O)c1ncc(C)s1` (stereo not shown) [compound 68], the IC50 worked out at 1590 nM.
`Cc1cnc(C(CC(=O)O)c2cc(F)cc(-c3ccccc3F)c2)s1` (stereo not shown) [compound 122]: under setting [1], the IC50 worked out at 780 nM.
The same measure, in the same setting: with `CC(=O)c1ccccc1-c1cccc(C(CC(=O)O)c2nnc(C)o2)c1` (stereo not shown) [compound 145] the figure was 1720 nM.
Regarding `CC(C)COc1cc(F)cc(-c2cccc(C(CC(=O)O)c3nccs3)c2)c1` (stereo not shown) [compound 31], the IC50 was 2310 nM.
On the same count and under the same terms, with `COc1ccc(-c2ccccc2F)cc1C(CC(=O)O)c1ncc(C)s1` (stereo not shown) [compound 72] the figure was 2340 nM; with `COc1ccc(-c2cccc(F)c2)cc1C(CC(=O)O)c1ncc(C)s1` (stereo not shown) [compound 70], 1960 nM.
As for `Cc1cccc(-c2cc(F)cc(C(CC(=O)O)c3ncco3)c2)c1F` (stereo not shown) [compound 119], under setting [1], the IC50 came out at 488 nM.
Turning to `Cc1cnc(C(CC(=O)O)c2cccc(-c3ccncc3F)c2)s1` (stereo not shown) [compound 57], the IC50 worked out at 7060 nM.
As for `Cc1cnc(C(CC(=O)O)c2cc(F)cc(-c3cccnc3)c2)s1` (stereo not shown) [compound 128], the IC50 under setting [1] came out at 1330 nM.
Same read-out and setting: the value for `COc1ccc(-c2ccccc2)cc1C(CC(=O)O)c1nccs1` (stereo not shown) [compound 168] was 4940 nM.
Turning to `COc1ccc(-c2ccccc2Cl)cc1C(CC(=O)O)c1ncc(C)s1` (stereo not shown) [compound 88], the IC50 turned out to be 6690 nM.
Still for that read-out and setting: with `N#CCOc1ccc(-c2cccc(C(CC(=O)O)c3nccs3)c2)cc1` (stereo not shown) [compound 32] the figure was 2420 nM; with `O=C(O)CC(c1cccc(-c2cccc(OC(F)(F)F)c2)c1)c1nccs1` (stereo not shown) [compound 28], 2250 nM.
The same measure, in the same setting: with `O=C(O)CC(c1cccc(-c2ccc(F)cc2)c1)c1nccs1` (stereo not shown) [compound 14] the figure was 4300 nM; with `COc1ccc(C=O)c(-c2cccc(C(CC(=O)O)c3nccs3)c2)c1` (stereo not shown) [compound 37], 3200 nM.
For `CC(=O)c1ccccc1-c1cccc(C(CC(=O)O)c2ncc(C)s2)c1` (stereo not shown) [compound 55], the IC50 amounted to 2300 nM.
Consider `Cc1nnc(C(CC(=O)O)c2cccc(-c3ccccc3C#N)c2)o1` (stereo not shown) [compound 146], for which, under setting [1], the IC50 came to 4740 nM.
Regarding `Cc1cnc(C(CC(=O)O)c2cccc(-c3ccncc3)c2)s1` (stereo not shown) [compound 60], the IC50 came out at 13700 nM.
Still for that read-out and setting: the value for `COc1ccc(-c2ccccc2C(F)(F)F)cc1C(CC(=O)O)c1ncc(C)s1` (stereo not shown) [compound 95] was 10200 nM; that for `COc1ccc(-c2ccc(C(F)(F)F)cc2)cc1C(CC(=O)O)c1ncc(C)s1` (stereo not shown) [compound 83] was 4380 nM.
Turning to `Cc1ccc(F)c(-c2cc(F)cc(C(CC(=O)O)c3ncc(C)s3)c2)c1` (stereo not shown) [compound 118], the IC50 under setting [1] was determined as 437 nM.
`O=C(O)CC(c1cccc(-c2cc(C(F)(F)F)ccc2F)c1)c1nccs1` (stereo not shown) [compound 13]: the IC50 was determined as 3620 nM.
The same measure, in the same setting: the value for `COc1ccc(-c2cc(Cl)ccc2F)cc1C(CC(=O)O)c1ncc(C)s1` (stereo not shown) [compound 65] was 1230 nM.
Same read-out and setting: the value for `CC(C)(C)c1cccc(-c2cccc(C(CC(=O)O)c3nccs3)c2)c1` (stereo not shown) [compound 1] was 1890 nM.
Still for that read-out and setting: with `Cc1cnc(C(CC(=O)O)c2cc(Cl)cc(-c3cc(F)ccc3F)c2)s1` (stereo not shown) [compound 101] the figure was 136 nM; with `Cc1cnc(C(CC(=O)O)c2cc(Cl)cc(-c3cccc(Cl)c3F)c2)s1` (stereo not shown) [compound 103], 197 nM.
With `O=C(O)CC(c1cc(F)cc(-c2cccc(OC(F)(F)F)c2)c1)c1ncco1` (stereo not shown) [compound 138], the IC50 under setting [1] is 2280 nM.
Take `Cc1cnc(C(CC(=O)O)c2cccc(-c3ccccc3C(N)=O)c2)s1` (stereo not shown) [compound 56]: the IC50 turned out to be 5380 nM.
Still for that read-out and setting: the value for `COc1ccc(-c2cccc(C#N)c2)cc1C(CC(=O)O)c1ncc(C)s1` (stereo not shown) [compound 94] was 9260 nM; that for `COc1cc(F)c(-c2cc(Cl)cc(C(CC(=O)O)c3ncc(C)s3)c2)c(F)c1` (stereo not shown) [compound 108] was 335 nM; that for `Cc1cnc(C(CC(=O)O)c2cc(Cl)cc(-c3ccncc3)c2)s1` (stereo not shown) [compound 112] was 459 nM.
Still for that read-out and setting: with `Cc1ccccc1-c1cccc(C(CC(=O)O)c2nccs2)c1` (stereo not shown) [compound 12] the figure was 3540 nM; with `O=C(O)CC(c1cccc(-c2ccc(OCc3ccccc3)c(F)c2)c1)c1nccs1` (stereo not shown) [compound 33], 2430 nM.
As to `Cc1cnc(C(CC(=O)O)c2cc(F)cc(-c3cccc(OC(F)(F)F)c3)c2)s1` (stereo not shown) [compound 124], the 50% inhibitory concentration (IC50) under setting [1] was 975 nM.
The same measure, in the same setting: the value for `N#Cc1ccccc1-c1cc(F)cc(C(CC(=O)O)c2ncco2)c1` (stereo not shown) [compound 137] was 2030 nM.
On to `COc1ccc(-c2cccc(C)c2)cc1C(CC(=O)O)c1ncc(C)s1` (stereo not shown) [compound 90], for which the IC50 amounted to 7120 nM.
Same read-out and setting: with `Cc1cnc(C(CC(=O)O)c2cc(Cl)cc(-c3ccccc3C(N)=O)c2)s1` (stereo not shown) [compound 110] the figure was 404 nM; with `COc1ccc(-c2ccc(Cl)cc2F)cc1C(CC(=O)O)c1ncc(C)s1` (stereo not shown) [compound 79], 3570 nM.
The same measure, in the same setting: with `Cc1cnc(C(CC(=O)O)c2cc(Cl)cc(-c3cccc(C)c3F)c2)s1` (stereo not shown) [compound 102] the figure was 184 nM.
With `Cc1cnc(C(CC(=O)O)c2cc(Cl)cc(-c3ccccc3C(=O)N(C)C)c2)s1` (stereo not shown) [compound 116], the IC50 under setting [1] was 1440 nM.
In the case of `N#Cc1ccc(-c2cccc(C(CC(=O)O)c3nccs3)c2)cn1` (stereo not shown) [compound 45], the IC50 came out at 22600 nM.
Consider `Cc1cnc(C(CC(=O)O)c2cc(F)cc(-c3ccccc3C(=O)N(C)C)c2)s1` (stereo not shown) [compound 132], for which the IC50 under setting [1] was 1700 nM.
Turning to `COc1cc(F)c(-c2cccc(C(CC(=O)O)c3nccs3)c2)cc1F` (stereo not shown) [compound 22], the IC50 worked out at 1320 nM.
Same read-out and setting: with `COc1cccc(-c2cccc(C(CC(=O)O)c3ncc(C)s3)c2)c1F` (stereo not shown) [compound 51] the figure was 397 nM; with `Cc1c(Cl)cccc1-c1cccc(C(CC(=O)O)c2nccs2)c1` (stereo not shown) [compound 6], 1670 nM.
Still for that read-out and setting: with `Cc1cnc(C(CC(=O)O)c2cccc(-c3ccccc3F)c2)s1` (stereo not shown) [compound 53] the figure was 631 nM.
Still for that read-out and setting: with `Cc1ccc(F)c(-c2cc(Cl)cc(C(CC(=O)O)c3ncc(C)s3)c2)c1` (stereo not shown) [compound 105] the figure was 232 nM.

Source of the values: US9199947B2, “Biaryl-propionic acid derivatives and their use as pharmaceuticals” (SANOFI, priority 2013, dated 2015).
